Experimental data as given in US8003695B2 (Chroma Therapeutics Ltd., priority 2006, dated 2011).

What follows are compounds tested against T1, IKBKB (IKKβ) (Homo sapiens, UniProt O14920) (assay: IKKβ Enzyme Assay (Z'-LYTE, Invitrogen)). Conditions: ATP at or close to Km; read-out: Inhibitor activity versus IKKβ.
T1 construct: purchased Invitrogen (Paisley, UK)
T1 sequence (O14920 1-756): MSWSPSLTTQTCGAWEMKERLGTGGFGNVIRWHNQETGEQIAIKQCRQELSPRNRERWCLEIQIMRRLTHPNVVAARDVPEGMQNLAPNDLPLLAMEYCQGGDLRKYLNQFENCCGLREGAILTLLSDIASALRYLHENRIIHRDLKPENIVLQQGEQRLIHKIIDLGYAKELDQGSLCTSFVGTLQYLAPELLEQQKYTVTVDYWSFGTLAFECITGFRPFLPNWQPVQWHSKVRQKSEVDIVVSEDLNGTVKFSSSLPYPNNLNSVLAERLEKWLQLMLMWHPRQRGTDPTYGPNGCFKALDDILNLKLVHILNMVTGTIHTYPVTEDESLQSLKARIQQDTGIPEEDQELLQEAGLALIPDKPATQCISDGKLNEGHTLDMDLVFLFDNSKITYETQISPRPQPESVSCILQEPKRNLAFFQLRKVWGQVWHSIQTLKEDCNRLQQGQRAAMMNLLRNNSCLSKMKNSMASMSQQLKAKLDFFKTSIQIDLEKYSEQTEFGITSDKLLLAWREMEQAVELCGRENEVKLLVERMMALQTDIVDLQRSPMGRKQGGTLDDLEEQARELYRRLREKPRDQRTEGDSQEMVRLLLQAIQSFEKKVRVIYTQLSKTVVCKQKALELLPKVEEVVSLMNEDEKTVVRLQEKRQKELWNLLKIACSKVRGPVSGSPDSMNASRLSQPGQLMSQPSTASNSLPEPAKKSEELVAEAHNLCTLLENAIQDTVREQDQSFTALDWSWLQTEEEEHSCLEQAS
Assay type: biochemical
Experimental: The ability of compounds to inhibit IKKβ kinase activity was measured in an assay performed by Invitrogen (Paisley, UK). The Z′-LYTE™ biochemical assay employs a fluorescence-based, coupled-enzyme format and is based on the differential sensitivity of phosphorylated and non-phosphorylated peptides to proteolytic cleavage. The peptide substrate is labelled with two fluorophores—one at each end—that make up a FRET pair. In the primary reaction, the kinase transfers the gamma-phosphate of ATP to a single serine or threonine residue in a synthetic FRET-peptide. In the secondary reaction, a site-specific protease recognizes and cleaves non-phosphorylated FRET-peptides. Phosphorylation of FRET-peptides suppresses cleavage by the Development Reagent. Cleavage disrupts FRET between the donor (i.e., coumarin) and acceptor (i.e. fluorescein) fluorophores on the FRET-peptide, whereas uncleaved, phosphorylated FRET-peptides maintain FRET. A […] method, which calculates the ratio (the Emission Ratio) of donor emission to acceptor emission after excitation of the donor fluorophore at 400 nm, is used to quantitate reaction progress.
The final 10 μL Kinase Reaction consists of 0.9-8.0 ng IKBKB (IKKβ), 2 μM Ser/Thr 05 Peptide and ATP in 50 mM HEPES pH 7.5, 0.01% BRIJ-35, 10 mM MgCl2, 1 mM EGTA. The assay is performed at an ATP concentration at, or close to the Km. After the 60 minute Kinase Reaction incubation at room temperature, 5 μL of a 1:128 dilution of Development Reagent is added. The assay plate is incubated for a further 60 minutes at room temperature and read on a fluorescence plate reader.
Duplicate data points are generated from a ⅓ log dilution series of a stock solution of test compound in DMSO. Nine dilutions steps are made from a top concentration of 10 μM, and a ‘no compound’ blank is included. Data is collected and analysed using XLfit software from IDBS. The dose response curve is curve fitted to model number 205 (sigmoidal dose-response model). From the curve generated, the concentration giving 50% inhibition is determined and reported.

IC50, < 1000 nM:
NC(=O)Nc1sc(-c2ccc(CN[C@H](C(=O)O)c3ccccc3)cc2)cc1C(N)=O [Example 50, (2S)-({4-[4-carbamoyl-5-(carbamoylamino)-2-thienyl]benzyl}amino)(phenyl)acetic acid]
CC(C)C[C@H](NCc1ccc(-c2cc(C(N)=O)c(NC(N)=O)s2)cc1)C(=O)O [Example 51, N-{4-[4-Carbamoyl-5-(carbamoylamino)-2-thienyl]benzyl}-L-leucine]
NC(=O)Nc1sc(-c2ccc(CN[C@@H](Cc3ccccc3)C(=O)O)cc2)cc1C(N)=O [Example 52, N-{-4-[4-Carbamoyl-5-(carbamoylamino)-2-thienyl]benzyl}-L-phenylalanine]
NC(=O)Nc1sc(-c2ccc(CN[C@@H](C(=O)O)c3ccccc3)cc2)cc1C(N)=O [Example 53, (2R)-({-4-[4-Carbamoyl-5-(carbamoylamino)-2-thienyl]benzyl}amino)(phenyl)acetic acid]
NC(=O)Nc1sc(-c2ccc(CN[C@H](C(=O)O)c3ccc4ccccc4c3)cc2)cc1C(N)=O [Example 54, (2S)-({-4-[4-Carbamoyl-5-(carbamoylamino)-2-thienyl]benzyl}amino)(2-naphthyl)acetic acid]
CC(C)C[C@H](NCc1ccc(-c2cc(C(N)=O)c(NC(N)=O)s2)c(Cl)c1)C(=O)O [Example 55, N{4-[4-carbamoyl-5-(carbamoylamino)-2-thienyl]-3-chlorobenzyl}-L-leucine]
Cc1cc(-c2cc(C(N)=O)c(NC(N)=O)s2)ccc1CN[C@@H](CC(C)C)C(=O)O [Example 56, N-{4-[4-carbamoyl-5-(carbamoylamino)-2-thienyl]-2-methylbenzyl}-L-leucine]
CC(C)C[C@H](NCc1cccc(-c2cc(C(N)=O)c(NC(N)=O)s2)c1)C(=O)O [Example 57, N-{3-[4-Carbamoyl-5-(carbamoylamino)-2-thienyl]benzyl}-L-leucine]
NC(=O)Nc1sc(-c2cccc(CN[C@H](C(=O)O)c3ccccc3)c2)cc1C(N)=O [Example 58, (2S)-({3-[4-carbamoyl-5-(carbamoylamino)-2-thienyl]benzyl}amino)(phenyl)acetic acid]
NC(=O)Nc1sc(-c2cccc(CN[C@H](C(=O)O)C3CCCCC3)c2)cc1C(N)=O [Example 59, (2S)-({3-[4-carbamoyl-5-(carbamoylamino)-2-thienyl]benzyl}amino)(cyclohexyl)acetic acid]
CC(C)(C)OC[C@H](NCc1cccc(-c2cc(C(N)=O)c(NC(N)=O)s2)c1)C(=O)O [Example 60, O-tert-butyl-N-{3-[4-carbamoyl-5-(carbamoylamino)thiophen-2-yl]benzyl}-L-serine]
C[C@@H](O)[C@H](NCc1cccc(-c2cc(C(N)=O)c(NC(N)=O)s2)c1)C(=O)O [Example 61, N-{3-[4-carbamoyl-5-(carbamoylamino)thiophen-2-yl]benzyl}-L-threonine]
CC(C)C[C@H](NCCc1ccc(-c2cc(C(N)=O)c(NC(N)=O)s2)cc1)C(=O)O [Example 63]
CC(C)C[C@H](NCCc1ccc(-c2cc(C(N)=O)c(NC(N)=O)s2)c(Cl)c1)C(=O)O [Example 64, N-(2-{-4-[4-Carbamoyl-5-(carbamoylamino)-2-thienyl]-3-chlorophenyl}ethyl)-L-leucine]
CC(C)C[C@H](NCCCOc1ccc(-c2cc(C(N)=O)c(NC(N)=O)s2)cc1)C(=O)O [Example 65, N-(3-{4-[4-Carbamoyl-5-(carbamoylamino)-2-thienyl]phenoxy}propyl)-L-leucine]
CC(C)C[C@H](NCCCOc1ccc(-c2cc(C(N)=O)c(NC(N)=O)s2)c(Cl)c1)C(=O)O [Example 66, N-(3-{4-[4-Carbamoyl-5-(carbamoylamino)-2-thienyl]-3-chlorophenoxy}propyl)-L-leucine]
CC(C)C[C@H](NCCCCCOc1ccc(-c2cc(C(N)=O)c(NC(N)=O)s2)cc1)C(=O)O [Example 67]
CC(C)C[C@H](NCCCCCOc1ccc(-c2cc(C(N)=O)c(NC(N)=O)s2)c(Cl)c1)C(=O)O [Example 68, N-(5-{4-[4-Carbamoyl-5-(carbamoylamino)-2-thienyl]-3-chlorophenoxy}pentyl)-L-leucine]
CC(C)C[C@H](NC/C=C/c1ccc(-c2cc(C(N)=O)c(NC(N)=O)s2)cc1)C(=O)O [Example 69, N-[(2E)-3-{4-[4-Carbamoyl-5-(carbamoylamino)-2-thienyl]phenyl}prop-2-en-1-yl]-L-leucine]
Cc1cc(-c2cc(C(N)=O)c(NC(N)=O)s2)ccc1/C=C/CN[C@@H](CC(C)C)C(=O)O [Example 70, N-[(2E)-3-{4-[4-carbamoyl-5-(carbamoylamino)thiophen-2-yl]-2-methylphenyl}prop-2-en-1-yl]-L-leucine]
CC(C)C[C@H](NC/C=C/c1ccc(-c2cc(C(N)=O)c(NC(N)=O)s2)cc1F)C(=O)O [Example 71, N-[(2E)-3-{4-[4-carbamoyl-5-(carbamoylamino)thiophen-2-yl]-2-fluorophenyl}prop-2-en-1-yl]-L-leucine]
CC(C)C[C@H](NC/C=C/c1ccc(-c2cc(C(N)=O)c(NC(N)=O)s2)cc1Cl)C(=O)O [Example 72, N-[(2E)-3-{4-[4-carbamoyl-5-(carbamoylamino)thiophen-2-yl]-2-chlorophenyl}prop-2-en-1-yl]-L-leucine]
Cc1cc(/C=C/CN[C@@H](CC(C)C)C(=O)O)ccc1-c1cc(C(N)=O)c(NC(N)=O)s1 [Example 73, N-[(2E)-3-{4-[4-carbamoyl-5-(carbamoylamino)thiophen-2-yl]-3-methylphenyl}prop-2-en-1-yl]-L-leucine]
CC(C)C[C@H](NC/C=C/c1ccc(-c2cc(C(N)=O)c(NC(N)=O)s2)c(F)c1)C(=O)O [Example 74, N-[(2E)-3-{4-[4-carbamoyl-5-(carbamoylamino)thiophen-2-yl]-3-fluorophenyl}prop-2-en-1-yl]-L-leucine]
CC(C)C[C@H](NC/C=C/c1ccc(-c2cc(C(N)=O)c(NC(N)=O)s2)c(Cl)c1)C(=O)O [Example 75, N-[(2E)-3-{4-[4-carbamoyl-5-(carbamoylamino)thiophen-2-yl]-3-chlorophenyl}prop-2-en-1-yl]-L-leucine]
CC(C)C[C@H](NC/C=C/c1ccc(-c2cc(C(N)=O)c(NC(N)=O)s2)cc1C(F)(F)F)C(=O)O [Example 76, N-[(2E)-3-{4-(4-carbamoyl-5-(carbamoylamino)thiophen-2-yl]-2-(trifluoromethyl)phenyl}prop-2-en-1-yl]-L-leucine]
CC(C)C[C@H](NC/C=C/c1cc(F)c(-c2cc(C(N)=O)c(NC(N)=O)s2)cc1F)C(=O)O [Example 77, N-[(2E)-3-{4-[4-carbamoyl-5-(carbamoylamino)thiophen-2-yl]-2,5-difluorophenyl}prop-2-en-1-yl]-L-leucine]
CC(C)C[C@H](NC/C=C/c1c(F)cc(-c2cc(C(N)=O)c(NC(N)=O)s2)cc1F)C(=O)O [Example 78, N-[(2E)-3-{4-[4-carbamoyl-5-(carbamoylamino)thiophen-2-yl]-2,6-difluorophenyl}prop-2-en-1-yl]-L-leucine]
